Experimental data reported in patent US20050187181A1 (University of Maryland, priority 2004, published 2005).
“Also recorded” adds a separate entry of the source. Where two headings read alike, the source gives them in different places.

Key:
[1] = tested on: murine model of colitis (DSS); settings: cited from earlier work
Na/K ATPase = Na/K ATPase assay (86Rb uptake into red blood cells);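 also: washed human red blood cells in K-free Ringer, test agent preincubated 20 min, then 86Rb uptake over 4 h at 37 °C counted as CPM per tube versus water control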
Method: Human red blood cells of any group-type were donated for research by the Blood Bank of the University Of Maryland, School of Medicine. Five ml of red cells are washed 3 times in 40 ml of Potassium free Ringers solution (141 mM NaCl, 1 mM H2NaPO4, 0.5 mM CaCl2, 1 mM MgSO4, 4.5 mM glucose, 10 mM HEPES pH7.4). 50 μl of washed red cells are added to 220 μl of potassium free Ringers solution. 30, 10, 3 or 1 μl of ultra-filtrate, HPLC (high performance liquid chromatography) fraction, or adenosine, inosine, guanosine, deoxyadenosine, deoxyguanosine, caffeine, aminophylline, dipyridamole, NBTI, 6thioinosine, 6thioguanosine, or EHNA (all in buffer) is added to the mixture and incubated for 20 min. 4 μCi of 86RbCl is added and incubated for 4 hrs at 37° C. The mixture is than washed three times with 4° C. Potassium free Ringers solution and the cells counted in a gamma counter (Packard, Cobra II). Na/K ATPase activity is expressed as the CPM (counts per minute) (CPM/tube*4 hrs). The effects of ultra-filtrate or HPLC fractions on ^86Rb uptake into red cells are compared to equal volumes of either water (control) or, in some cases, 0.01 mM Ouabain (maximal inhibition).

[2] = water; cited from earlier work
[3] = tested on: rats in severe hemorrhagic shock; settings: for survival compared to saline and cytidine controls (Kaplan-Meier): single dose of 2.5 mM in saline, 8 rats/group, p<0.001
Method: Pentobarbital-anesthetized rats were subjected to severe hemorrhagic shock. Five groups of eight rats were resuscitated.
Plasma K^+ was measured from plasma taken before hemorrhage, before resuscitation and 0.5 hrs after resuscitation using a K^+ electrode (Jenco Electronics, Inc., San Diego, Calif.). Survival time between groups was compared by Kaplan-Meier survival Analysis.

[4] = human blood; cited from earlier work
[5] = tested on: septic shock induced by cecal ligation and puncture (CLP); settings: cited from earlier work
[6] = tested on: lipopolysaccharide-induced shock; settings: cited from earlier work
[7] = tested on: rat in endotoxic shock (LPS); assay: Endotoxic shock (LPS 10 mg/kg iv) with intravenous inosine infusion; assay type: in vivo
Method: Pentobarbital-anesthetized (50 mg/kg) rats (380-420 g) had cannulas placed in their femoral artery and vein. Arterial Blood pressure was monitored via the femoral artery cannula. After 15 minutes of stabilization, the rats were injected with 10 mg/kg of lipopolysaccharide (LPS, Sigma Aldrich, serotype 026:B6) in saline via the femoral vein. At the same time, an infusion of saline or inosine (5 mM) in saline or no infusion was begun (5 ml/hr) via the femoral vein cannula. A 5 mM solution of inosine is […]. Arterial pressure and heart rate were monitored throughout the procedure. Survival time was recorded. Supplemental doses (15 mg/kg) of pentobarbital were given via the femoral vein cannula every hour. Rats surviving beyond 8.5 hr had their cannulas removed and were allowed to recover from pentobarbital anesthesia. These rats lived till 48 hours at which time we terminated the experiment. Inosine was administered at a rate of 1.34 mg/ml at 5 ml/hour for 5 hours which is a total of 33.5 mg for 5 hours. In 400 gram rats that is a total of about 83.75 mg/kg over the 5 hour period; 16.75 mg/hr or 402 mg/day.

OC[C@H]1O[C@@H](n2cnc3c(O)ncnc32)[C@H](O)[C@@H]1O [inosine]
mortality ([1]; oral inosine from day one, by day 30): 60%
protection of colon ([1]; oral inosine): protected the colon from DSS induced inflammatory cell infiltration and lipid peroxidation
relative effectiveness at stimulating Na/K ATPase (Na/K ATPase; 10^-3 Molar (FIG. 8)): both equally effective
stimulation of Na/K ATPase (Na/K ATPase; human red blood cells, dose response (FIG. 3b, FIG. 8)): stimulated Na/K ATPase in a dose-dependent manner
stimulation of Na/K ATPase in the presence of ouabain (Na/K ATPase; partial inhibition / sub maximal doses of ouabain (FIG. 9)): overcame partial inhibition by ouabain
solubility [2]: highly soluble in water
bradycardia on resuscitation from hemorrhagic shock ([3]; 2.5 mM in saline): did not cause the bradycardia
time to 50% mortality ([3]; 2.5 mM in saline): about 100 minutes
time to 100% mortality ([3]; 2.5 mM in saline): about 150 minutes
effect on shock-elevated plasma K^+ ([3]; 2.5 mM in saline, 0.5 hr): lowered the shock-elevated plasma K^+
Plasma K^+ 0.5 hr after Resuscitation ([3]; 2.5 mM in saline, mean ± SE, N = 7/group): 2.93 ± 0.21 mM
adverse effects on resuscitation from hemorrhagic shock ([3]; rat, in vivo): without any adverse effects
survival compared to saline and cytidine controls (Kaplan-Meier) [3]: survived significantly longer
survival compared to saline and cytidine controls (Kaplan-Meier) ([3]; listed as Inosine): survived significantly longer than saline or cytidine controls; also recorded: significantly increased survival
half life [4]: < 1 s
organ damage ([5]; 100 mg/kg IP x3): significantly reduced
survival ([5]; 100 mg/kg IP x3): significantly improved
mortality ([5]; post-treatment protocol, 100 mg/kg IP x3, at 24 hours): about 20%
mortality ([5]; post-treatment protocol, at 120 hours): about 90%
mortality ([5]; post-treatment protocol, by 48 hours): about 80%
mortality ([5]; pre-treatment protocol, 100 mg/kg IP x3, by 24 hours): 15%
mortality ([5]; pre-treatment protocol, by 48 hours): about 70%
mortality ([5]; pre-treatment protocol, by 120 hours): about 75%
mortality ([6]; single IP 100 mg/kg 30 minutes before LPS 70 mg/kg IP, at 36 hours): 19%
mortality ([6]; single IP 100 mg/kg before LPS, at 60 hours): 37.5%
mortality ([6]; single IP 100 mg/kg before LPS, by 96 hours): 50%
survival compared to untreated mice ([6]; single IP 100 mg/kg before LPS): prolonged survival compared to untreated mice
survival compared to saline or no-resuscitation groups (Kaplan-Meier) ([7]; continuous infusion 5 ml/hr of 5 mM for 5 hrs): survived significantly longer than the saline or no-resuscitation groups
survival / success in resuscitating rats fully ([7]; iv infusion 5 mM, 5 ml/hr, 5 hours, observed to 48 hours): 100%
